One test deals with T1, recombinant ATX (Homo sapiens, UniProt Q13822).
T1 construct: purchased SinoBiological Inc (main data); R&D (additional Km values)
As to the kind of experiment: FS-3 ATX activity assay. In kind it is biochemical. On the procedure:
Inhibition of ATX activity by BrP-LPA was determined using the cleavage of the ATX-specific fluorogenic substrate FS-3 (Echelon Biosciences, UT, USA). Assays were conducted in a final volume of 100 μl in the presence of 140 mM NaCl, 5 mM KCl, 1 mM MgCl2 and 50 mM Tris, pH 8.0 with the use of 1 µM FS-3, 2 nM ATX from Echelon and increasing concentrations of BrP-LPA. Reactions were brought up to 100 µl with ddH2O and were then incubated at 37°C in a Tecan Infinite 200 microplate reader (Tecan Trading AG, Switzerland) set to make fluorescence measurements every 1 min for a total period of 30 min. Autotaxin activity was quantified by measuring the rate of increase in fluorescence at 528 nm with excitation at 485 nm. At the end of the measurement, each data point was plotted on a graph of fluorescence versus time. A linear regression was fitted in the linear portion of the graph (3–20 min).
The biochemistry of lyso-PLD was assessed by following the kinetics data using a wide panel of different ATX substrates [FS-3, different LPC species (14:0, 16:0, 18:0, 18:1)], three different recombinant ATX proteins (R&D, Sino-Biological and Echelon) and three different ATX activity assays (FS-3, TOOS, Amplex Red). The ATX activity was measured at different substrate concentrations (typically from 1-1000 μM) in order to examine whether ATX follows Michaelis-Menten kinetics. […] Km and Vmax were evaluated from the rectangular hyperbola curve with the use of GraphPad software.
For in vitro inhibition measurements, BrP-LPA was dissolved in water as a stock solution (4 mM) and appropriate dilutions were made in water. […] The in vitro inhibition of ATX by BrP-LPA was evaluated with three different assays (FS-3, Amplex Red, and TOOS). […]
The inhibition model (competitive, noncompetitive, or mixed type inhibition) was evaluated by graphical analysis with Lineweaver–Burk double reciprocal plots (1/[velocity] versus 1/[substrate]) and Cornish-Bowden plot ([substrate]/[velocity] versus [Inhibitor]). […]

For a further test, the system named is ATX. The settings on record: at 10 μM, substrate FS-3; cited from earlier work.
A further test deals with T2, plasma ATX/LysoPLD (Mus musculus, UniProt Q9R1E6).
T2 construct: from tissue; host or cells: mouse plasma / whole blood
As to the kind of experiment: Plasma ATX/lysoPLD activity ex vivo (TOOS assay, exogenous LPC). In kind it is biochemical. The settings on record: for IC50: TOOS. The procedure:
ATX/LysoPLD activity was assessed based on the amount of choline released from LPC with the use of TOOS (N-ethyl-N-(2-hydoroxy-3-sulfopropyl)-3-methylaniline) reagent. In this assay ATX-mediated LPC-liberated choline is oxidised by choline oxidase to betaine and hydrogen peroxide (H2O2). The latter in the presence of horseradish peroxidase reacts with TOOS and 4-aminoantipyrene (4-AAP) to form a pink quinoneimine dye measured at 555 nm.
Diluted plasma samples (100 fold dilution; final EDTA concentration 0.5 mM) or recombinant ATX protein (2 nM) were incubated with LPC in the presence of 100 mmol/l Tris–HCl/pH 9.0, 500 mmol/l NaCl, 5 mmol/l MgCl2, 5 mmol/l CaCl2, 60 μM CoCl2 and 0.05% Triton X-100 for 3 h at 37°C at a final volume of 100 μl. It should be noted that EDTA was used not only as an anticoagulant but also as an inhibitor of ATX activity ex vivo [46], in order to suppress artificial LPA production during blood withdrawal and plasma preparation; this is because the same samples were used in phospholipid measurements.
The liberated choline was detected by adding 100 μl of a color mix containing 4-AAP and TOOS (0.3 mM), horseradish peroxidase (5.3 UnitmL^−1) and choline oxidase (2 UnitmL^−1). Absorbance was measured at 555 nm and data were analyzed using the statistical software package Prism 4.0 (Graphpad Software Inc, La Jolla, CA, USA). For each sample and control the absorbance was plotted against time and the slope (da/min) for the linear (steady-state) portion of each reaction profile was calculated. Absorbance units were converted to nmol of choline/min/ml by comparison with a choline standard curve or by use of the extinction coefficient for the quinoneimine dye according to the following equation: [drawing 1] Where Vt* is the total volume of reaction in ml (0.2 ml); Vs* is the volume of sample in ml; e is the millimolar extinction coefficient of quinoneimine dye under the assay conditions (e = e = […]); and 1/2: Factor based on the fact that 1 mol of hydrogen peroxide produces 1/2 mol of quinoneimine dye.
For in vitro inhibition measurements, BrP-LPA was dissolved in water as a stock solution (4 mM) and appropriate dilutions were made in water. The inhibition of ATX by BrP-LPA was measured employing 2 nM recombinant ATX, 50 μΜ LPC (14:0, 16:0, 18:0) and 0.01 to 100 μmol/L of BrP-LPA (final concentrations). The in vitro inhibition of ATX by BrP-LPA was evaluated with three different assays (FS-3, Amplex Red, and TOOS). […] BrP-LPA was also tested for its ability to inhibit mouse plasma ATX activity. Diluted mouse plasma was used as the source of ATX and the analysis of inhibition was made with TOOS as the in vitro inhibition assay.
The inhibition model (competitive, noncompetitive, or mixed type inhibition) was evaluated by graphical analysis with Lineweaver–Burk double reciprocal plots (1/[velocity] versus 1/[substrate]) and Cornish-Bowden plot ([substrate]/[velocity] versus [Inhibitor]). These plots were generated by the measurement of ATX activity in the presence of different BrP-LPA concentrations (0–10 μΜ) and increased amounts of 16:0 LPC (100, 200, 400 μΜ). The inhibition constants (Ki) and IC50 values were determined using the mean values obtained from two independent experiments. The relative remaining ATX activity or LPA levels in the presence of the BrP-LPA was expressed as a percentage of the corresponding control value (ATX activity, LPA levels without inhibitor). The IC50 value was determined graphically by plotting the log concentration of BrP-LPA versus relative remaining ATX activity or LPA levels of each test sample using the sigmoid dose–response fitting method (Prism® software). The IC50 (concentration of BrP-LPA sufficient to inhibit ATX activity or diminish LPA levels by 50%) was calculated by the equation f = y0+a/(1+exp(-(x-x0)/b)) given by SigmaPlot 11.0 (Systat Software, Inc., San Jose, CA, USA).

SMILES strings stand for the structures.

Usually % Inhibition stands for the drop in the measured response relative to a control, in per cent. As usually defined, the IC50 is the midpoint of a concentration-inhibition curve. For orientation: Ki means the equilibrium dissociation constant of an inhibitor or competing ligand from its target.

On to `CCCCCCCCCCCCCCCC(=O)OC[C@@H](O)CC(Br)P(=O)(O)O` (stereo partly drawn) [BrP-LPA, 1-bromo-3(S)-hydroxy-4-(palmitoyloxy)butyl-phosphonate], for which the “% Inhibition at 10 μΜ” value at recombinant ATX (FS-3 1 μΜ, BrP-LPA 10 μΜ) is 95%; at plasma ATX/LysoPLD (14:0 LPC 50 μΜ), 28%; on plasma ATX/LysoPLD (16:0 LPC 50 μΜ), 58%; at plasma ATX/LysoPLD (18:0 LPC 50 μΜ), 70%. Moreover, the IC50 on recombinant ATX (FS-3 assay, [S] 1 μΜ FS-3, Echelon ATX 2 nM, mean±std) was 400 ± 30 nM; against plasma ATX/LysoPLD (exogenous 14:0 LPC 50 μΜ) it was greater than 10000 nM; at plasma ATX/LysoPLD (exogenous 16:0 LPC 50 μΜ) it was 2900 ± 300 nM; at plasma ATX/LysoPLD (exogenous 18:0 LPC 50 μΜ), less than 100 nM. Moreover, the Ki on recombinant ATX (FS-3 substrate, Cheng-Prusoff from IC50) came out at 300 ± 100 nM. In addition, the “inhibition of lysophospholipase D activity of ATX” value in the test with ATX is listed as 94%.

The values above are taken from publication PMC3726599, “A Metabolically-Stabilized Phosphonate Analog of Lysophosphatidic Acid Attenuates Collagen-Induced Arthritis” (PLoS ONE, 2013).
